# Tests used:
# [1] = tested on: human hair follicles; assay: Dermal papilla area and melanin clumping, Fontana-Masson stained ex vivo hair follicles; type: cell-based
# Method: Microscopic hair cycle staging: Hair cycle staging is performed at the end of the culture and can be determined according to several established parameters as described previously. Hair follicles are microscopically evaluated for the hair cycle staging using Masson-Fontana histochemistry and Ki-67/TUNEL immunostaining as previously described. […] Melanin clumps are indicated on the images by the orange arrows, and are counted in the Masson-fontana stained section at the end of the culture in a defined region of interest starting at the Auber's line and including the precortical hair matrix as described previously.
# [2] = molecular target: T1, GPR91 (Homo sapiens, UniProt Q9BXA5); assay: GTPyS G-protein functional assay; type: biochemical; parameters: host or cells: LUVA; details: read-out: Test compound pIC50, GTPyS (converted)
# T1 sequence (Q9BXA5 1-334): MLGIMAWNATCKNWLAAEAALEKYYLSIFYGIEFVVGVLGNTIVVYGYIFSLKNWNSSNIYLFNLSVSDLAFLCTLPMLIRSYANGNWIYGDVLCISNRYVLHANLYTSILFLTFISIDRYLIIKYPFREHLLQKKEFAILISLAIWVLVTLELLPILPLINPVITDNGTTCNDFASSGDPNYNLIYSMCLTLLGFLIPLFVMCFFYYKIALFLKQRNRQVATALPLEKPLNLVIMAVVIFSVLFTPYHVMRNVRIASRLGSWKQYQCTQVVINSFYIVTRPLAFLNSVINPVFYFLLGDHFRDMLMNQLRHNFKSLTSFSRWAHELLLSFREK
# From the text: (§1) GPR91 inhibition can be measured according to the art. For example, GPR91 inhibition may be measured by testing a compound in a G-protein functional assay such as Calcium flux, IP1 accumulation and GTPyS. GPR91 inhibition may be measured by testing a compound in phenotypic assays which measures a cytokine response that is relevant to the indication.
# [3] = molecular target: T1, GPR91; assay: IP1 accumulation; type: cell-based; parameters: host or cells: LUVA; details: read-out: Test compound pIC50, IP1 (converted)
# From the text: as §1
# [4] = tested on: human hair follicles; assay: RNA sequencing of ex vivo cultured hair follicles; type: cell-based; details: affected scalp regions, 5 nM, 24 hours
# Method: RNA extraction, sequencing and analysis were performed as follows; RNA from n=2-3 hair follicles per group was extracted using […]® PicoPure® RNA Isolation Kit (ThermoFisher) including a Dnase digestions step using the Rnase-Free Dnase Set from Qiagen and stored at −80 degrees Celsius until analysed. RNA concentration, purity and integrity were assessed before sequencing. Sequencing was performed on a NovaSeq 6000 using 2×100 bp read length with an output of approximately 30 M clusters (6 Gb per sample). Demultiplexing of the sequencing reads was performed with Illumina bcl2fastq (2.20).
# Briefly, DESeq2 first creates a pseudo-reference sample (row-wise geometric mean) and calculates the ratio of each sample to this reference. Then, the normalization factor for each sample (size factor) is calculated using the median value of all ratios for a given sample. Normalized count values are created by dividing each raw count value in a given sample by that sample's normalization factor. Finally, DESeq2 calculates p values and adjusted p values for genes of two groups by allowing the shrinkage of the log 2 fold changes when the information for a gene is low (low counts or high dispersion values). For manual calculation of fold change (FC) between two groups, the ratio of the normalized read counts was used. And FC is considered relevant or significant if it is greater of equal to 2 (upregulation) or smaller that or equal to 0.5 (downregulation).
# [5] = molecular target: T1, GPR91; assay: Calcium flux in HEK293; type: cell-based; details: read-out: Test compound pIC50, Calcium flux in HEK293 (converted)
# From the text: as §1
# [6] = molecular target: T1, GPR91; assay: Succinate-stimulated secretion of PGD2 and cytokines/chemokines in LUVA cells; type: cell-based; parameters: host or cells: LUVA; details: LUVA cells, compound 1 hr prior to succinate stimulation
# Method: After the incubation, the cell suspension was centrifuged, and the supernatant was collected for downstream readouts of secreted factors including Prostaglandin D2 (PGD2) by ELISA (Cayman Chemical PGD2 EIA kit), and cytokines/chemokines TNFa, MIP1a and Eotaxin-3 by MSD (Mesoscale V-Plex Plus proinflammatory panel 1, Plus Chemokine Panel 1).
# A GPR91 knockout in LUVA cells (received from Kerafast Inc) was generated using CRISPR technology with a single guide following protocols known in the art. The guide RNA sequence used was […] (SEQ ID NO: 4). The guide RNA cut location was chromosome 3: 151,880,674.
# [7] = tested on: human hair follicles; assay: Versican immunofluorescence in dermal papilla of hair follicles; type: cell-based; details: healthy hair follicles
# From the text: Versican immunofluorescence (as previously described in Soma et al J Dermatol Sci 2005, doi: 10.1016/j.jdermsci.2005.03.010) was used to determine hair follicle inductive properties.
# [8] = tested on: human hair follicles; assay: Microscopic hair cycle staging in ex vivo hair follicle organ culture; type: cell-based; details: donors with healthy hair follicles
# From the text: Compounds, at the concentrations indicated, are present throughout the duration of the hair follicle culture at 0.1% DMSO.
smiles,measurement,setting,value
"CN1CCN(Cc2ccc(-c3cccc(C(=O)Nc4ccccc4CC(=O)O)c3)cc2)CC1 [Compound 1, 2-(2-(4′-((4-methylpiperazin-1-yl)methyl)-[1,1′-biphenyl]-3-carboxamido)phenyl)acetic acid]","size of the dermal papilla area, representative images",[1]; 5 uM and 50 uM,increased size of the dermal papilla area
same,"dermal papilla area, AGA","[1]; AGA hair follicles, affected/balding region of the scalp",increases the dermal papilla area
same,dermal papilla area,[1]; healthy hair follicles,increases the dermal papilla area
same,IC50,[2],31.6 nM
same,IC50,[3],100 nM
same,"genes of apoptotic processes, cell chemotaxis and immune function",[4],"significant downregulation in genes that play a role in apoptotic processes, cell chemotaxis and immune function"
same,genes related to metabolic processes and biosynthesis of macromolecules,[4],increase in genes related to increased metabolic processes and biosynthesis of macromolecules
same,hair keratins gene expression,[4],significant upregulation in hair keratins
same,IC50,[5],39.8 nM
same,"Test compound pIC50, PGD2",[6],7.6
same,IC50,"[6]; read-out: Test compound pIC50, MIP-1a (converted)",79.4 nM
same,versican expression in the dermal papilla,[7],Increased versican expression
same,percentage of hair follicles in the anagen phase,[8],increases the percentage of hair follicles in the anagen phase

# Reference: patent publication US20240165108A1, “NOVEL USE” (GlaxoSmithKline Intellectual Property Development Limited, priority 2022, published 2024)
